Activity calls are given as the source filed them.

Drawing on ChEMBL document CHEMBL1201862, “PubChem BioAssay data set” (2004), this text covers IC50, AC50 and EC50 for eight compounds.

The target in experiment [1] is T1, Rac GTPase-activating protein 1 (Homo sapiens, UniProt Q9H0H5).
T1 sequence (Q9H0H5 whole entry): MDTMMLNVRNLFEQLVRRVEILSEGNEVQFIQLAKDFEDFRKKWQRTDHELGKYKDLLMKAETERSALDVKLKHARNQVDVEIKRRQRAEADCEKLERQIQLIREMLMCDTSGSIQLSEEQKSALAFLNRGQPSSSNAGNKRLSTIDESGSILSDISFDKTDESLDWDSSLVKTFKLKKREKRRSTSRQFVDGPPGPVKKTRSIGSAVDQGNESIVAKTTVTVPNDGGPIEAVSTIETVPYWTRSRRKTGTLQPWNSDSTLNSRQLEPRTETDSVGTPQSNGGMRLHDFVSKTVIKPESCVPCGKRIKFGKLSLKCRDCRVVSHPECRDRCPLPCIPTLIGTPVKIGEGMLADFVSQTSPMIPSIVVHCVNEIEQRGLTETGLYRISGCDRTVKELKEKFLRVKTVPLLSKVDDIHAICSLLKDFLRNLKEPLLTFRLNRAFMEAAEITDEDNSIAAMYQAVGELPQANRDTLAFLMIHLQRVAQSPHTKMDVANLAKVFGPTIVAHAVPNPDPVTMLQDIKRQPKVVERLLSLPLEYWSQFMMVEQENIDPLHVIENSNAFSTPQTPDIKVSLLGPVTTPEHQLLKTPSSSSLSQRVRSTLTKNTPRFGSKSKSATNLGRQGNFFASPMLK
Description: MgcRacGAP GTPase-activating activity inhibitors, confirmation, biochemical, ADP Hunter fluorescence, primary and confirmatory (AID 624330). The experiment is classed as functional.

The target in a further experiment is Major prion protein (Homo sapiens, UniProt P04156). The experiment is classed as functional, cell-based.
A short description of experiment [2]: ZM109 Env clade C HIV-1 fusion inhibitors, dose response, HeLa effector, CEM target cells, luciferase, cherry-pick (AID 652058). The experiment is classed as functional, cell-based.
Experiment [3] in a line: inhibitors of clade B AD8 Env fusion, dose response, cell-based, cherry-pick (AID 652062).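 Also: luciferase signal from cell-cell fusion driven by HIV-1 clade B AD8 Env; potency is for inhibitors of fusion seen as a drop in luminescence.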 The experiment is classed as functional.
A short description of experiment [4]: off-target signal loss in HeLa-CEM21 co-culture – HeLa F-luc CTL cells, cherry-picked, counter-screen for HIV-1 Env fusion inhibitor project, dose response (AID 652040).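 Also: potency for signal decrease marking cytotoxic or nonspecific inhibition.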 The experiment is classed as functional, cell-based. In general terms: The purpose of a counterscreen is to sort out artefacts and off-target activity.
Experiment [5] can be described thus: inhibitors of HIV Env-driven cell fusion, dose response, cherry-pick (AID 652057). The experiment is classed as functional, cell-based.
The nature of experiment [6]: CEM21 lymphoblast cell cytotoxicity, dose response, cytotoxicity control for viral fusion inhibitor project, CellTiter-Glo luminescence, cherry-picked (AID 652042).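 Also: potency for signal decrease meaning cytotoxicity.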 The experiment is classed as functional, cell-based. Background: Cellular ATP, detected with luciferase, serves as a proxy for viable cell number.
For experiment [7], the target named is 1-phosphatidylinositol 4,5-bisphosphate phosphodiesterase gamma-1 (Homo sapiens, UniProt P19174). Description: Counterscreen for inhibitors of phospholipase C isozymes (PLC-B3): Fluorescence-based biochemical high throughput dose response assay to identify inhibitors of phospholipase C isozymes (PLC-gamma1).
Experiment [8] has as its target 1-phosphatidylinositol 4,5-bisphosphate phosphodiesterase beta-3 (Homo sapiens, UniProt Q01970). Description: Fluorescence-based biochemical high throughput dose response assay to identify inhibitors of phospholipase C isozymes (PLC-B3).
For experiment [9], the target named is T2, RNA-binding protein pos-1 (Caenorhabditis elegans, UniProt G5EF15).
T2 sequence (G5EF15 whole entry): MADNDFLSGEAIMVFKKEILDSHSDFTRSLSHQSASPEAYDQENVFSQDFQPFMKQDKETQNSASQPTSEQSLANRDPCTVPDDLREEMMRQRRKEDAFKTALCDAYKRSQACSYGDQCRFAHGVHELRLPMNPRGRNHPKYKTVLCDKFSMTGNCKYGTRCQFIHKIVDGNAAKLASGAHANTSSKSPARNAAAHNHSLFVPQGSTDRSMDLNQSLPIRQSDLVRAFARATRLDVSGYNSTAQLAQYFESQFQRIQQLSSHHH
Description: inhibitors of POS-1/mex-3 RNA binding, dose response, biochemical, fluorescence polarization (AID 1964).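 Also: purified POS-1 fused to maltose binding protein made in E. coli; potency of compounds blocking POS-1 binding to fluorescent RNA.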 A general note: Fluorescence polarisation rises when a labelled molecule tumbles more slowly, as on binding a larger partner.

Experiment [10] deals with SWI/SNF-related matrix-associated actin-dependent regulator of chromatin subfamily A member 2 (Homo sapiens, UniProt P51531). Description: Luminescence-based cell-based high throughput dose response assay to identify activators of the function of SWI/SNF related, matrix associated, actin dependent regulator of chromatin, subfamily a, member 2 (SMARCA2, BRM). The experiment is classed as functional.

Experiment [11] deals with T3, Zinc finger protein mex-5 (Caenorhabditis elegans, UniProt Q9XUB2).
T3 sequence (Q9XUB2 whole entry): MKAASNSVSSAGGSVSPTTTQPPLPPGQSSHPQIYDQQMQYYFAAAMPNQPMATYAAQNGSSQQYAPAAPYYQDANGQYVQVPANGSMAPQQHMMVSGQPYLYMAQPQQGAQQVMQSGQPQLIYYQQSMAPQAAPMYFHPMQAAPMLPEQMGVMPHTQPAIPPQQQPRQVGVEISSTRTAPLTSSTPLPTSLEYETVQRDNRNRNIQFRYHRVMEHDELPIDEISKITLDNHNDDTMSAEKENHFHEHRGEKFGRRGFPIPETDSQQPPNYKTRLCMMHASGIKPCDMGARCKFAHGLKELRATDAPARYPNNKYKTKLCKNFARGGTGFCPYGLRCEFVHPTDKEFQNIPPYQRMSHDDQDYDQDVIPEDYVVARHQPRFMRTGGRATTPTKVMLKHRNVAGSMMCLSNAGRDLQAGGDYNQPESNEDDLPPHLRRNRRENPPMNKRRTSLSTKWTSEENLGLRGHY
Description: MEX-5/TCR-2 RNA interaction inhibitors, dose response, biochemical, C. elegans, fluorescence polarization (AID 1960).

A short description of experiment [12]: Counterscreen for activators of the function of SWI/SNF related, matrix associated, actin dependent regulator of chromatin, subfamily a, member 2 (SMARCA2, BRM): Luminescence-based cell-based high throughput dose response assay to identify non-selective compounds using the VP16 reporter assay. The experiment is classed as functional.
Another experiment relates to HeLa. Description: HeLa cell cytotoxicity, dose response, cytotoxicity control, ATP luminescence, cherry-pick samples (AID 687004). The experiment is classed as functional, cell-based. The note with it: Homo sapiens.
A short description of experiment [13]: non-specific cell cytotoxicity, dose response, cytotoxicity control for PAX8 inhibitor project, plate reader, dry powder samples (AID 743021). The experiment is classed as functional, cell-based.
The target in a further experiment is Paired box protein Pax-8 (Homo sapiens, UniProt Q06710). Description: inhibitors of PAX8-driven TPO luciferase reporter, dose response, RMG-I cells, cherry-pick (AID 687027).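 Also: luciferase reporter driven by Pax8 target thyroperoxidase promoter measured by SteadyGlo luminescence.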 The experiment is classed as functional, cell-based.
Experiment [14] is described as follows: HepG2 cell cytotoxicity, dose response, cytotoxicity control, cherry-picked samples (AID 1159577). The experiment is classed as functional, cell-based.
Experiment [15] is described as follows: P. falciparum Dd2 growth inhibitors, dose response, SYBR Green, cherry-picked samples (AID 1159567). The experiment is classed as functional, cell-based.

On to `CC(C)c1nc(SCC(=O)Nc2ccc(N(C)C)cc2)c2ccccc2n1`, for which the IC50 is 58.2 µM (inactive) in the experiment “cells”, 196 µM (active) in [1] and 2.94 µM (active) on Major prion protein.

For the compound `COC(=O)N1[C@H](C)C=C[C@]1(Cc1ccccc1)C(=O)NCCCNc1ncc(C(F)(F)F)cc1Cl`, the concentration at half-maximal activity (AC50) in experiment [2] was 6.11 µM (active); in experiment [3], 11.9 µM (active); in experiment [4] it was 6.96 µM (active); in experiment [5] it was 3.42 µM (active); in [6], 48.6 µM (active).

On to `CC(C)(C)C1CCC(C(=O)Nc2ccccc2)CC1` (centres undefined), for which the IC50 in [7] and in experiment [8] was > 122 µM (inactive) in each case.

Take `CCCCNC(=O)c1cc2c(=O)n3cccc(C)c3nc2n(Cc2ccncc2)c1=N`: the EC50 in experiment [9] is 24.3 µM (inconclusive); in [10], > 91.1 µM (inactive); in experiment [11], 39.6 µM (inconclusive); in experiment [12], > 91.1 µM (inactive).

For `N=C(N)NS(=O)(=O)c1ccc(NC(=S)NC(=O)c2ccc3c(c2)OCO3)cc1`, the IC50 was > 138 µM (inactive) in the experiment “cells” and 15.1 µM (inactive) on Major prion protein.

Turning to `Cc1ccc2nc(C)c3c(c2c1)OC(C(C)(Cl)Br)C3` (centres undefined), the AC50 with HeLa is > 52 µM (inactive).

For `CC1(C)CC(=O)C=C(C#CC2(O)CCCCC2)C1`, the concentration at half-maximal activity (AC50) was 64.8 µM (active) in experiment [13] and 4.34 µM (active) at Paired box protein Pax-8.

On to `C[C@@H]1CN([C@@H](C)CO)C(=O)Cc2cc(NC(=O)Nc3ccc4c(c3)OCO4)ccc2O[C@H]1CN(C)Cc1ccc(Cl)c(Cl)c1`, for which the AC50 is > 39 µM (inactive) in [14]; 21.8 µM (active) in [2]; 25 µM (active) in experiment [3]; 5.32 µM (active) in experiment [15]; 23.5 µM (active) in experiment [5].

The term IC50 denotes the concentration that inhibits the measured activity by half. One may read the AC50 as the concentration at which the activity in the assay is half-maximal. For orientation: EC50 means the concentration that produces a half-maximal response.
